From patent US9060515B2, “Heterocyclic urea compounds” (BIOTA EUROPE LTD, priority 2011, dated 2015)
Values after ≈ are worked out from the molar mass of the structure shown.

Legend:
Format in all cases: cell-based
S. aureus (ATCC 29213) = assay: Antibacterial susceptibility testing (MIC, broth microdilution or agar dilution), S. aureus; conditions: Staphylococcus aureus, ATCC29213; read-out: S. aureus (ATCC 29213) minimal inhibitory concentration (MIC)
Procedure, shortened: (§1)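 MICs by CLSI (M7-A7) broth microdilution or agar dilution, against reference ATCC strains as listed.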

E. faecalis (ATCC 29212) = assay: Antibacterial susceptibility testing (MIC, broth microdilution or agar dilution), E. faecalis; conditions: Enterococcus faecalis, ATCC29212; read-out: E. faecalis (ATCC 29212) minimal inhibitory concentration (MIC)
Procedure, shortened: as §1

S. pyogenes (ATCC 51339) = assay: Antibacterial susceptibility testing (MIC, broth microdilution or agar dilution), S. pyogenes; conditions: Streptococcus pyogenes, ATCC51339; read-out: S. pyogenes (ATCC 51339) minimal inhibitory concentration (MIC)
Procedure, shortened: as §1

[1] = tested on: H. influenzae (ATCC 49247); assay: Antibacterial susceptibility testing (MIC, broth microdilution or agar dilution), H. influenzae; conditions: Haemophilus influenzae, ATCC49247; read-out: H. influenzae (ATCC 49247) minimal inhibitory concentration (MIC)
Procedure, shortened: as §1

| SMILES | MIC (S. aureus (ATCC 29213)) [µg/mL] | MIC (E. faecalis (ATCC 29212)) [µg/mL] | MIC (S. pyogenes (ATCC 51339)) [µg/mL] | MIC [1] [µg/mL] |
| --- | --- | --- | --- | --- |
| CCNC(=O)Nc1cc(Nc2cccc(F)c2)c(C(=O)Nc2ccc(CC(C)(C)C(=O)O)cc2)cn1 [Compound 181, 3-{4-[({6-[(ethylcarbamoyl)amino]-4-[(3-fluorophenyl)amino]pyridin-3-yl}carbonyl)amino]phenyl}-2,2-dimethylpropanoic acid] | ≤ 1 | ≤ 1 | ≤ 1 | ≤ 1 |
| CCNC(=O)Nc1cc(Nc2ccc(C#N)cc2)c(C(=O)Nc2ccc(CC(C)(C)C(=O)O)cc2)cn1 [Compound 188, 3-{4-[({4-[(4-cyanophenyl)amino]-6-[(ethylcarbamoyl)amino]pyridin-3-yl}carbonyl)amino]phenyl}-2,2-dimethylpropanoic acid] | ≤ 1 | ≤ 1 | ≤ 1 | ≤ 1 |
| CCNC(=O)Nc1cc(Nc2cc(F)c(F)c(F)c2)c(C(=O)Nc2ccc(CCC(=O)O)cc2)cn1 [Compound 189] | ≤ 1 | ≤ 1 | ≤ 1 | ≤ 1 |
| CCNC(=O)Nc1cc(Nc2ccc(C(=O)OC)cc2)c(C(=O)Nc2ccc(CC(C)(C)C(=O)O)cc2)cn1 [Compound 196] | ≤ 1 | ≤ 1 | ≤ 1 | ≤ 1 |
| CCNC(=O)Nc1cc(Nc2ccc(F)c(F)c2)c(C(=O)Nc2ccc(CCC(=O)O)cc2)cn1 [Compound 220, 3-{4-[({4-[(3,4-difluorophenyl)amino]-6-[(ethylcarbamoyl)amino]pyridin-3-yl}carbonyl)amino]phenyl}propanoic acid] | ≤ 1 | ≤ 1 | ≤ 1 | ≤ 1 |
| CCNC(=O)Nc1cc(Nc2cccc(F)c2)c(C(=O)Nc2ccc(CCC(=O)O)cc2)cn1 [Compound 221, 3-{4-[({6-[(ethylcarbamoyl)amino]-4-[(3-fluorophenyl)amino]pyridin-3-yl}carbonyl)amino]phenyl}propanoic acid] | ≤ 1 | ≤ 1 | ≤ 1 | ≤ 1 |
| CCNC(=O)Nc1cc(Nc2ccc(Cl)cc2F)c(C(=O)Nc2ccc(CCC(=O)O)cc2)cn1 [Compound 224, 3-{4-[({4-[(4-chloro-2-fluorophenyl)amino]-6-[(ethylcarbamoyl)amino]pyridin-3-yl}carbonyl)amino]phenyl} propanoic acid] | ≤ 1 | ≤ 1 | ≤ 1 | ≤ 1 |
| CCNC(=O)Nc1cc(Nc2cc(Cl)cc(Cl)c2)c(C(=O)Nc2ccc(CCC(=O)O)cc2)cn1 [Compound 228, 3-{4-[({4-[(3,5-dichlorophenyl)amino]-6-[(ethylcarbamoyl)amino]pyridin-3-yl}carbonyl)amino]phenyl}propanoic acid] | ≤ 1 | ≤ 1 | ≤ 1 | ≤ 1 |
| CCNC(=O)Nc1cc(Nc2ccc(F)c(Cl)c2)c(C(=O)Nc2ccc(CCC(=O)O)cc2)cn1 [Compound 229, 3-{4-[({4-[(3-chloro-4-fluorophenyl)amino]-6-[(ethylcarbamoyl)amino]pyridin-3-yl}carbonyl)amino]phenyl}propanoic acid] | ≤ 1 | ≤ 1 | ≤ 1 | ≤ 1 |
| CCNC(=O)Nc1cc(Nc2cc(F)cc(F)c2)c(C(=O)Nc2ccc(CCC(=O)O)cc2)cn1 [Compound 235, 3-{4-[({4-[(3,5-difluorophenyl)amino]-6-[(ethylcarbamoyl)amino]pyridin-3-yl}carbonyl)amino]phenyl}propanoic acid] | ≤ 1 | ≤ 1 | ≤ 1 | 4 (≈ 8.27 µM) |
| CCNC(=O)Nc1cc(Nc2cccc(C(F)(F)F)c2)c(C(=O)Nc2ccc(CCC(=O)O)cc2)cn1 [Compound 240, 3-(4-{[(6-[(ethylcarbamoyl)amino]-4-{[3-(trifluoromethyl)phenyl]amino}pyridin-3-yl)carbonyl]amino}phenyl)propanoic acid] | ≤ 1 | ≤ 1 | – | ≤ 1 |
